System: human osteoblastic cells hFOB1.19
Assay: alkaline phosphatase (ALP) activity, TRACP & ALP detection kit
Type: cell-based
Conditions: hFOB1.19 not treated with the oligopeptides, CaCl2 0.01, 0.06, 0.2, 0.9 and 3.6 µM, 2 days
Method: The activity of alkaline phosphatase was measured by a TRACP & ALP detection kit. hFOB1.19 cells were cultured at 2×10^4 cells/well in a 96-well plate for 2 days. After removing the supernatant of the culture, the cells were resuspended in physiological saline. To each well 50 µl of the extract solution was added, and incubated at room temperature for 5 minutes. Then, 50 µl of the matrix solution was added to each well and reacted at 37°C for 60 minutes. Finally, 50 µl of 0.5N NaOH was added to each well to terminate the reaction. After formation of color, the solution was measured for the absorbance at 405 nm.
Alkaline phosphatase is present in bone at a high level, and frequently considered as the indicator for differentiation of osteoblastic cells and growth of bone. In Example 6, human osteoblastic cells hFOB1.19 was not treated with the oligopeptide at the condition of different concentrations of CaCl2, and was treated with the four oligopeptides (0.45 µM) described above at the condition of 3.6 µM CaCl2 for 2 days, to detect the ALP activities in human osteoblastic cells hFOB1.19. […] (In FIGs. 6A and 6B, three separate experiments were performed for each group, and the data were expressed by mean ± SD. Statistical significance: by one-tailed test, *P < 0.05, in respect to the Control groups (A-D).

SMILES: [Ca+2].[Cl-].[Cl-] [CaCl2]
- ALP activities: no significant change
